Measurements as given in patent US11453700B2, “Peptide having activities of skin whitening and uses thereof” (CAREGEN CO., LTD., priority 2019, dated 2022).

Experiments:
myosin VA = assay: Expression of melanin production-associated genes (RT-PCR), myosin VA; type: cell-based, mouse; conditions: B16F10 cells, 200 ng/mL α-MSH, peptide 1-160 μM, 72 hours, FIG. 3
Description: (§1) In detail, a mouse melanoma cell B16F10 was seeded in a 6-well plate at a density of 5×10^4 cells/well, followed by incubation for 16 hours. Thereafter, the culture medium was replaced by a medium supplemented with 2% (v/v) serum, and then 200 ng/mL of α-MSH was added thereto. Together therewith, the peptide composed of the amino acid sequence of SEQ ID NO: 1 was added at a concentration of 1 μM, 10 μM, 20 μM, 40 μM, 60 μM, 80 μM or 160 μM, respectively, followed by incubation for 72 hours. mRNAs were extracted from the cultured cells, and the extracted mRNAs were reverse transcribed using a cDNA synthesis kit & PCR pre-mix (Intron, Korea), thereby synthesizing cDNA, respectively. Thereafter, a polymerase chain reaction (PCR) was carried out using each cDNA and Rab27a, Melanophilin (Mlph), myosin VA, MITF, tyrosinase, or TRP1 primer pairs. Moreover, a control, a negative control, and a positive control were used in the same manner as in Example 2.(1), and nucleotide sequences of the primers used herein are as in Table 3 below.

Mlph = assay: Expression of melanin production-associated proteins (immunoblotting), Mlph; type: cell-based, mouse; conditions: B16F10 cells, 200 ng/mL α-MSH, peptide 1-160 μM, 72 hours, FIG. 4
Description: (§2) In detail, a mouse melanoma cell B16F10 was seeded in a 6-well plate at a density of 5×10^4 cells/well, followed by incubation for 16 hours. Thereafter, the culture medium was replaced by a medium supplemented with 2% (v/v) serum, and then 200 ng/mL of α-MSH was added thereto. Together therewith, the peptide composed of the amino acid sequence of SEQ ID NO: 1 was added at a concentration of 1 μM, 10 μM, 20 μM, 40 μM, 60 μM, 80 μM or 160 μM, respectively, followed by incubation for 72 hours. Thereafter, the cultured cells were lysed, and then subjected to immunoblotting using antibodies (all available from santacruz biotechnology, USA) against Mlph, Rab27a, tyrosinase (TYR), or MITF. In addition, a control, a negative control, and a positive control were used in the same manner as in Example 2.(1).

Melanophilin (Mlph) = assay: Expression of melanin production-associated genes (RT-PCR), Mlph; type: cell-based, mouse; conditions: B16F10 cells, 200 ng/mL α-MSH, peptide 1-160 μM, 72 hours, FIG. 3
Description: as §1

tyrosinase [1] = assay: Expression of melanin production-associated genes (RT-PCR), tyrosinase; type: cell-based, mouse; conditions: B16F10 cells, 200 ng/mL α-MSH, peptide 1-160 μM, 72 hours, FIG. 3
Description: as §1

MITF [2] = assay: Expression of melanin production-associated proteins (immunoblotting), MITF; type: cell-based, mouse; conditions: B16F10 cells, 200 ng/mL α-MSH, peptide 1-160 μM, 72 hours, FIG. 4
Description: as §2

Rab27a [3] = assay: Expression of melanin production-associated proteins (immunoblotting), Rab27a; type: cell-based, mouse; conditions: B16F10 cells, 200 ng/mL α-MSH, peptide 1-160 μM, 72 hours, FIG. 4
Description: as §2

MITF [4] = assay: Expression of melanin production-associated genes (RT-PCR), MITF; type: cell-based, mouse; conditions: B16F10 cells, 200 ng/mL α-MSH, peptide 1-160 μM, 72 hours, FIG. 3
Description: as §1

B16F10 cells = assay: Inhibitory effect on melanin production in α-MSH-stimulated B16F10 cells; type: cell-based, mouse; conditions: 200 ng/mL α-MSH, peptide 10, 50, 100 or 200 μM, 72 hours, FIG. 1
Description: A mouse melanoma cell B16F10 was seeded in a 6-well plate at a density of 5×10^4 cells/well, followed by incubation for 16 hours. Thereafter, the culture medium was replaced by a medium supplemented with 2% (v/v) serum, and then 200 ng/mL of α-melanocyte-stimulating hormones (α-MSH) was added thereto to stimulate melanin production, together with each peptide of an amino acid sequence of SEQ ID NO: 1, at a concentration of 10 μM, 50 μM, 100 μM, or 200 μM, respectively, followed by incubation for 72 hours. Thereafter, the incubated cells were dissolved in 1 N NaOH, and absorbance at 450 nm was measured. In addition, an untreated group (Con) was used as a control, and only an α-MSH-treated group as a negative control and 200 μM or 500 μM of arbutin-, which is a known skin-whitening agent, and α-MSH-treated group as a positive control were used.
From absorbance at 450 nm, the content of melanin (%) produced by B16F10 cells was determined.

TRP1 = assay: Expression of melanin production-associated genes (RT-PCR), TRP1; type: cell-based, mouse; conditions: B16F10 cells, 200 ng/mL α-MSH, peptide 1-160 μM, 72 hours, FIG. 3
Description: as §1

tyrosinase (TYR) = assay: Expression of melanin production-associated proteins (immunoblotting), TYR; type: cell-based, mouse; conditions: B16F10 cells, 200 ng/mL α-MSH, peptide 1-160 μM, 72 hours, FIG. 4
Description: as §2

Rab27a [5] = assay: Expression of melanin production-associated genes (RT-PCR), Rab27a; type: cell-based, mouse; conditions: B16F10 cells, 200 ng/mL α-MSH, peptide 1-160 μM, 72 hours, FIG. 3
Description: as §1

tyrosinase [6] = biological target: T1, tyrosinase (Mus musculus, UniProt P11344); assay: Inhibitory effect on tyrosinase activity in α-MSH-stimulated B16F10 cells (L-DOPA, cell lysate); type: cell-based; conditions: 200 ng/mL α-MSH, peptide 1-160 μM, 72 hours, FIG. 2
T1 construct: the cells were lysed by adding 0.1 M sodium phosphate buffer (pH 6.8, lysis buffer) containing 1% (v/v) triton X-100; endogenous in cells; host or cells: B16F10 mouse melanoma cells, stimulated with alpha-MSH
T1 sequence (P11344 19-533): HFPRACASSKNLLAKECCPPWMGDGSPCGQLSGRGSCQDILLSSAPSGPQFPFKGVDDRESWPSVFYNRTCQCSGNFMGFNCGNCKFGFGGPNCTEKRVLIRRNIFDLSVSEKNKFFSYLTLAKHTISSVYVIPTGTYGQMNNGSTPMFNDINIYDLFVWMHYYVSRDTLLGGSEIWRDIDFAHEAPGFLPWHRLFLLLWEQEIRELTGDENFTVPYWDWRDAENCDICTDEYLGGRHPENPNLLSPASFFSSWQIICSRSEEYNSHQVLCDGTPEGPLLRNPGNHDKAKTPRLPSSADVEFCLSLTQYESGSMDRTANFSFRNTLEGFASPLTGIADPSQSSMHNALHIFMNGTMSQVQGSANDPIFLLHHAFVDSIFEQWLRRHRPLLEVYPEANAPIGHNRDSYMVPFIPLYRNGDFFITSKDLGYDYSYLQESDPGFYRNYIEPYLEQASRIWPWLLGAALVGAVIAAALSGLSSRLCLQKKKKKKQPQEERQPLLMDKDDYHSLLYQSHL
Description: In detail, a mouse melanoma cell B16F10 was seeded in a 6-well plate at a density of 5×10^4 cells/well, followed by incubation for 16 hours. Thereafter, the culture medium was replaced by a medium supplemented with 2% (v/v) serum, and then 200 ng/mL of α-MSH was added thereto. Together therewith, the peptide composed of the amino acid sequence of SEQ ID NO: 1 was added at a concentration of 1 μM, 10 μM, 20 μM, 40 μM, 60 μM, 80 μM or 160 μM, respectively, followed by incubation for 72 hours. The 6-well plate was placed on ice, and then washed with cold PBS twice. Thereafter, the cells were lysed by adding 0.1 M sodium phosphate buffer (pH 6.8, lysis buffer) containing 1% (v/v) triton X-100. Thereafter, the cells in the well plate were scraped using a scraper, and collected in a 1.5 mL tube. The collected cells were vortexed, and centrifuged at 15,000 rpm for 10 minutes to obtain a supernatant. Thereafter, proteins in the supernatant were quantified to adjust the protein content at a predetermined amount. A buffer was added thereto, and 90 μL total of the sample was dispensed in a 96-well plate.
Thereafter, 20 μL of 10 mM L-DOPA was added to each sample, and incubated at 37° C. for 1 hour. Then, absorbance at 475 nm was measured. […] From absorbance at […], the tyrosinase activity (fold) was determined.

expression of tyrosinase gene (tyrosinase [1]): inhibited
expression of TYR protein (tyrosinase (TYR)): inhibited
tyrosinase activity (tyrosinase [6]): inhibited
Substance: PNRYP [SEQ ID NO: 1]
expression of myosin VA gene (myosin VA): inhibited
expression of Mlph protein (Mlph): inhibited
expression of Mlph gene (Melanophilin (Mlph)): inhibited
expression of MITF protein (MITF [2]): inhibited
expression of Rab27a protein (Rab27a [3]): inhibited
expression of MITF gene (MITF [4]): inhibited
melanin production (B16F10 cells): reduced in a concentration-dependent manner
expression of TRP1 gene (TRP1): inhibited
expression of Rab27a gene (Rab27a [5]): inhibited
